Results as given in patent publication US20080271210A1, “Oryza Sativa Lectin-Like Receptor Kinase 1 (Oslrk1), a Gene Involved in Plant Development” (Temasek Life Sciences Laboratory National University of …, priority 2004, published 2008).

How the values were obtained:
Assay type in all cases: in vivo, Oryza sativa
[1] = tested on: Oslrk1 gene; test: Northern-blot of Oslrk1 transcript in WT seedlings treated with hormones and SA; details: 100 uM, 24 hours, WT seedlings
Source text: Differential Regulation of Oslrk1 Gene Expression by Hormones. Receptor-like kinases were postulated to be involved in signal transduction events as they perceive a signal via a ligand-binding extracellular domain and transmit it through the serine/threonine kinase domain into the cytosol (Shiu and Bleecker, 2001). In order to know possible factors influencing the Oslrk1 gene regulation, we analyzed promoter of the Oslrk1 (1.5 kb) for the presence of cis-acting elements using the program PlantCARE (Lescot et al., 2002). Three TGAGC motifs observed in MeJA inducible genes were found in promoter of the Oslrk1 at the positions −186, −657 and −1190. Apart from these, three GA3 inducible motifs (P-box-CCTTxt) −101, −206 and −740 bp upstream of the Oslrk1 ORF were located. In addition, five salicylic acid inducible motifs (TCA-elementcAGAAa/ga) at the positions of −321, −601, −604, −855 and −1135 were detected. The presence of MeJA, GA and SA responsive cis-elements in the Oslrk1 promoter indicated possible regulatory roles of these factors. The promoter analysis led us to study the effect of different hormones and compounds on the Oslrk1 transcription. The WT seeds were germinated for […] then seedlings were transferred to the medium containing one of the following chemicals: […], MeJA, GA3 or ABA at concentration 100 uM and SA (5 mM) for 24 hours (Materials and Methods). The total RNA isolated from the untreated and treated seedlings were used in Northern-blot hybridization using 3′ UTR of the Oslrk1 gene as a probe. The treatment with GA3 and SA repressed the Oslrk1 gene expression (FIG. 8A) by 2.5 and 3.3 times respectively. […] In order to confirm the level of induction of the Oslrk1 gene by MeJA over time, in another series of experiments, a time course was performed after hormone treatment. Seven day old seedlings were sprayed with 100 uM of MeJA solution and they were harvested in 1, 2, 4, 6, 8, and 12 hours.
RNA Isolation and Northern-blot Analysis. RNA was isolated from different organs of rice plant at different developmental stages (roots of 10-14 days old seedlings and 2 months old plants, 10-14 days old seedlings, young and mature leaves, panicles at the flowering stage and calli) using a RNeasy Plant mini kit (Qiagen,). The RNA (10 ug) was fractionated on a 1.2% denaturating formaldehyde agarose gel and transferred onto a Hybond-N^+ membrane (Amersham). The bolts were hybridized with dogoxigenin (DIG)-labeled probes in DIG Easy Hyb solution (Roche) at 50° C. After hybridization, membranes were washed twice with 2×SSC and 0.1% SDS for 15 min, then twice with 0.5×SSC and 0.1% SDS for 15 min at 68° C. Detection was carried out according to manufacturer using DIG Wash and Block Buffer set and chemiluminescent substrate CDP Star™ (Roche). DIG-labelled probe corresponded to 3′UTR and lectin domain of Oslrk1 was used. For the control of RNA quantity, DIG-probe corresponding to rice Actin1 gene was synthesized using the following primers: […]
(§1) The RT-PCRs and Northern blots were repeated at least thrice and similar results were obtained. The quantification of the intensity of the hybridization signals was performed using Quantity ONE 4.5.0 software in Gel doc XR documentation system (Bio-Rad Laboratories, Inc., USA). The level of actual expression was calculated as a ratio of intensity of specific signal (Oslrk1 3′UTR probe) to the intensity of signal of positive control (rice Act1).
Treatment of WT Seedlings with Hormones and Sugars. Two week old WT seedlings were transferred to MS medium containing 100 μM of different hormones, such as Indole 3-Acetic Acid (IAA), Abscisic acid (ABA), Methyl Jasmonate (MeJA), or Gibbrellic Acid (GA3) and 5 mM of Salicylic Acid (SA), and were grown for 24 hours under normal day/light conditions. Total RNA was extracted from root of the seedlings and whole seedlings. […]

[2] = tested on: Oslrk10; test: RT-PCR of Oslrks in treated 2 week-old seedlings; details: treated vs control
Method: (§2) RT-PCRs were carried out on RNA samples isolated from 2 week-old seedlings treated with various sugar (FIG. 13), hormone (FIG. 14), and abiotic stresses (FIG. 15) using primers designated to either 3′ or 5′ Untranslated Regions (UTRs) of the 15 Oslrks found in Table 2. For each Oslrk two lanes in the gel are found, the first lane is the control and the second one treatment samples.
(§3) Table 3 provides a summary of all the above referenced data on the Oslrks, showing the RT-PCR results of various treatments, including sugar, hormone and abiotic stress and northern blot results on various tissues of rice plant grown in normal conditions, and the ESTs, or cDNAs availability in the database. In the table, “I” represents induced expression and “R” represents repressed expression.

[3] = tested on: Oslrk11; test: RT-PCR of Oslrks in treated 2 week-old seedlings; details: treated vs control
Method: as §2, §3

[4] = tested on: Oslrk12; test: RT-PCR of Oslrks in treated 2 week-old seedlings; details: treated vs control
Method: as §2, §3

[5] = tested on: Oslrk14; test: RT-PCR of Oslrks in treated 2 week-old seedlings; details: treated vs control
Method: as §2, §3

[6] = tested on: Oslrk1; test: RT-PCR of Oslrks in treated 2 week-old seedlings; details: treated vs control
Method: as §2, §3

[7] = tested on: Oslrk2; test: RT-PCR of Oslrks in treated 2 week-old seedlings; details: treated vs control
Method: as §2, §3

[8] = tested on: Oslrk4; test: RT-PCR of Oslrks in treated 2 week-old seedlings; details: treated vs control
Method: as §2, §3

[9] = tested on: Oslrk5; test: RT-PCR of Oslrks in treated 2 week-old seedlings; details: treated vs control
Method: as §2, §3

[10] = tested on: Oslrk6; test: RT-PCR of Oslrks in treated 2 week-old seedlings; details: treated vs control
Method: as §2, §3

[11] = tested on: Oslrk8; test: RT-PCR of Oslrks in treated 2 week-old seedlings; details: treated vs control
Method: as §2, §3

[12] = tested on: Oslrk1 gene; test: Northern-blot of Oslrk1 transcript in WT seedlings treated with sugars; details: sugars 175 mM, 48 hours, Mannitol as osmotic control
Method: Lectins are known as carbohydrate-binding proteins that specifically recognize diverse sugar structures (Vijayan and Chandra, 1999). […] Five different sugars: glucose (Glu), sucrose (Suc), fructose (Fm), Gal and Man were used for this study along with Mannitol as an osmotic control (Methods). Northern-blot hybridizations were carried out on the total RNA isolated from treated seedlings.
RNA Isolation and Northern-blot Analysis. RNA was isolated from different organs of rice plant at different developmental stages (roots of 10-14 days old seedlings and 2 months old plants, 10-14 days old seedlings, young and mature leaves, panicles at the flowering stage and calli) using a RNeasy Plant mini kit (Qiagen,). […] For the control of RNA quantity, DIG-probe corresponding to rice Actin1 gene was synthesized using the following primers: […]
as §1, with “Act1). […]” for “Act1).”

[13] = tested on: WT seeds and seedlings; test: Germination and growth of WT seeds in galactose/mannose containing media
Source text: (§4) The altered expression of the Oslrk1 by different sugars described above led us to study the response of the mutant to these monosaccharides and sucrose. The WT and the mutant seeds were germinated and grown in Gal, Man, Glu, Fm along with Suc at different concentrations (ranging from 0.1% to 1%) and Suc alone containing medium as a control. The following parameters were taken into account during observation: the shoot length, the number and the length of adventitious roots and the germination rate. […] Out of these three sugars tested, Man was selected as an example as its inhibitory effect was similar in seeds and seedlings of WT and mutant as shown in FIGS. 10A and B. The seed germination was severely affected by Man.
(§5) At 1.0% of the Gal, the shoot length decreased by half in the mutant, whereas only by 15% in the WT seedlings. […] Apart from this, the germination rate of the WT seeds dropped to 85% whereas in the mutant it dropped to 30%.
(§6) Germination of WT and mutant seeds in galactose/mannose containing media. WT and mutant seeds were germinated separately on MS medium containing 0.8% agar and 1% sucrose. In addition, D(+)galactose/D(+/−)mannose was added in different concentrations (0.1, 0.2, 0.5, and 1.0%) along with a control (MS with 1% of sucrose). At 14 days after germination, the observations for adventitious root number and length (cm), shoot length (cm) and germination rate (%) were recorded.

[14] = tested on: Oslrk1 mutant seeds and seedlings; test: Germination and growth of Oslrk1 mutant seeds in galactose/mannose containing media
Source text: as §4, §5, §6

[15] = tested on: Oslrk9; test: RT-PCR of Oslrks in treated 2 week-old seedlings; details: treated vs control
Method: as §2, §3

[16] = tested on: Oslrk15; test: RT-PCR of Oslrks in treated 2 week-old seedlings; details: treated vs control
Method: as §2, §3

Row | SMILES | effect on Oslrk1 transcription [1] | Oslrk10 expression by RT-PCR, Rt [2] | Oslrk11 expression by RT-PCR, Sh [3] | Oslrk14 expression by RT-PCR, Sh [5] | Oslrk2 expression by RT-PCR, Rt [7] | Oslrk2 expression by RT-PCR, Sh [7] | Oslrk4 expression by RT-PCR, Rt [8] | Oslrk4 expression by RT-PCR, Sh [8] | Oslrk5 expression by RT-PCR, Rt [9] | Oslrk5 expression by RT-PCR, Sh [9] | Oslrk8 expression by RT-PCR, Sh [11] | further results
1 | CC1=CC(=O)CC(C)(C)[C@@]1(O)/C=C/C(C)=C\C(=O)O [ABA, Abscisic acid] | no significant effect | R | I | I | I | I | I | I | I | I | I | Oslrk12 expression by RT-PCR, Sh [4]: I; Oslrk1 expression by RT-PCR, Sh [6]: R; Oslrk6 expression by RT-PCR, Sh [10]: R
2 | O=C[C@H](O)[C@@H](O)[C@@H](O)[C@H](O)CO [Gal, galactose] | – | – | R | I | I | R | – | I | I | I | I | Oslrk1 expression in response to sugars [12]: Repression; length of adventitious roots ([13]; 1.0% Gal): reduced; number of the adventitious roots ([13]; 1.0% Gal): more or less same; shoot length decreased by ([13]; 1.0% Gal): 15%; germination rate ([13]; Gal (1.0%)): 85%; length of adventitious roots ([14]; Oslrk1 mutant, 1.0% Gal): severe reduction; number of the adventitious roots reduced by ([14]; Oslrk1 mutant, 1.0% Gal): 85%; shoot length decreased by ([14]; Oslrk1 mutant, 1.0% Gal): half; germination rate ([14]; Oslrk1 mutant, Gal (1.0%)): 30%; behavior of the mutant compared with the WT upon treatment ([14]; sugar 0.1% to 1% along with Suc): differential response; Oslrk10 expression by RT-PCR, Sh ([2]; Sh): I; Oslrk11 expression by RT-PCR, Rt ([3]; Rt): I; Oslrk9 expression by RT-PCR, Sh [15]: I
3 | O=C(O)Cc1c[nH]c2ccccc12 [IAA, Indole 3-Acetic Acid] | no significant effect | I | – | – | – | – | I | – | I | – | – | Oslrk15 expression by RT-PCR, Rt [16]: I; Oslrk8 expression by RT-PCR, Rt ([11]; Rt): I
